Experimental findings from patent US11976083B2, “Inhibitors of peptidylarginine deiminases” (Gilead Sciences, Inc., priority 2020, dated 2024) are described below.

The term IC50 denotes the concentration at which inhibition is half-maximal.

The test addresses T1, human PAD4 (Homo sapiens, UniProt Q9UM07).
T1 construct: human PAD4 (NM_012387), A2-P663, was PCR amplified; His-SUMO (N, cleaved yes); made in house; host or cells: E. coli BL21(DE3)
As to the kind of experiment: In vitro PAD4 BAEE biochemical assay. To be noted: BAEE substrate 3 mM, 5 nM PAD4, 2 mM calcium chloride; geometric mean of multiple experiments. From the text: In Vitro PAD4 BAEE Biochemical Assay
The enzymatic activity of human PAD4 was monitored in a biochemical assay in the presence or absence of compounds using the small peptidyl arginine mimic BAEE (Na-Benzoyl-L-arginine ethyl ester hydrochloride) as substrate. PAD4 activity led to deimination of BAEE and release of ammonia. Levels of ammonia were monitored by using an amine coupling reaction and were indicative of PAD4 enzymatic activity.
One hundred nanoliters of test compounds dissolved in DMSO at various concentrations were dispensed into a 384-well black OptiPlate using a Labcyte Echo instrument. Ten microliters of a solution of recombinant PAD4 and calcium chloride diluted in PAD4 assay buffer (50 mM MOPS [3-(N-morpholino) propanesulfonic acid], pH 7.6; 50 mM sodium chloride; 0.05% Tween-20; 2 mM dithiothreitol) was added to the compound-containing plate and was incubated for 30 minutes at 25° C. Ten microliters of a solution of BAEE (Sigma-Aldrich #B4500) diluted in PAD4 assay buffer was then added to start the reaction. Final concentrations were 5 nM PAD4, 2 mM calcium chloride, and 3 mM BAEE. The reaction mixture was incubated at 25° C. for 2 hours and was stopped with the addition of 10 microliters of a solution of 75 mM EDTA (Ethylenediaminetetraacetic acid) in PAD4 assay buffer. Thirty microliters of detection solution (5 mM o-phthalaldehyde, 50 mM MOPS [3-(N-morpholino) propanesulfonic acid], pH 7.6; 50 mM sodium chloride; 0.05% Tween-20; 5 mM dithiothreitol) was then added and the reaction was incubated for 1 hour at 25° C. The level of fluorescent thiol-substituted isoindole resulting from the reaction of ammonia, o-phthalaldehyde, and dithiothreitol was measured on an Envision plate reader (PerkinElmer) with 405 nm excitation and 535 nm emission.
Data were normalized based on maximum inhibition (50 micromolar of the covalent PAD inhibitor BB-Cl-Amidine (Bicker, K. L.; Anguish, L.; Chumanevich, A. A.; Cameron, M. D.; Cui, X.; Witalison, E.; Subramanian, V.; Zhang, X.; Chumanevich, A. P.; Hofseth, L. J.; Coonrod, S. A.; Thompson, P. R. ACS Med. Chem. Lett. 2012, 3, 1081-1085). and no inhibition (DMSO) controls. Least squares curve fittings were performed using a four-parameter variable slope nonlinear regression model. IC50 is defined as the concentration of compound required to inhibit 50% of maximum activity. IC50 values from multiple experiments were averaged by geometric mean and the standard deviation was calculated.

T1 sequence (Q9UM07 2-663): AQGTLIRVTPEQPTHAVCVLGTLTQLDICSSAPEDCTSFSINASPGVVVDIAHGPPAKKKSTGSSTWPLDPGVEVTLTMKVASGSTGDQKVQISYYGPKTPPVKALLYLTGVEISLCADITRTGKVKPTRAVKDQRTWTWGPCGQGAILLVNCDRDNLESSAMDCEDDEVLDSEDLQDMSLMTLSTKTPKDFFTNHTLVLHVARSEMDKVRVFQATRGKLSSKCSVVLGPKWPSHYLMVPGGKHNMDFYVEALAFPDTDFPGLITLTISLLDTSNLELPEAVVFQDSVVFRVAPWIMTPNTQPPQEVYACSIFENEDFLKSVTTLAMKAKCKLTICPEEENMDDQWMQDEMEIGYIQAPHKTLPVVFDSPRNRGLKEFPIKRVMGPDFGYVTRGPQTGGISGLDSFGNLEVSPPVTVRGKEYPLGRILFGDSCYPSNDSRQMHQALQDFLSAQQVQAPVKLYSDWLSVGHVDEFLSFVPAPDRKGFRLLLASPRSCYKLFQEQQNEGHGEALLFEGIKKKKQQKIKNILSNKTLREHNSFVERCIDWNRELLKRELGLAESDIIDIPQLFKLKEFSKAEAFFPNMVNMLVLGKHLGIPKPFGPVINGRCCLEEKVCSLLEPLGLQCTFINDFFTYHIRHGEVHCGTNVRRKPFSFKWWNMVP

Consider `C[C@H]1NC(=O)c2ccc(Cl)nc2CCCCCn2c(-c3nc4cc(C(=O)N5C[C@H](N)[C@@H]6CC[C@H]5C6)c(F)c(F)c4n3C3CC3)cc3ccc1nc32` [Example 456, (2~{R})-17-[5-[(1~{S},4~{R},5~{R})-4-amino-2-azabicyclo[3.2.1]octane-2-carbonyl]-1-cyclopropyl-6,7-difluoro-benzimidazol-2-yl]-8-chloro-2-methyl-3,9,16,22-tetrazatetracyclo[14.5.2.0^{5,10}.0^{19,23}] tricosa-1(22),5(10),6,8,17,19(23),20-heptaen-4-one], for which the half-maximal inhibitory concentration (IC50) was found to be 0.057 µM.

As for `COc1cc(C(=O)N2C[C@H](N)[C@@H]3CC[C@H]2C3)cc2nc(-c3cc4ccc5nc4n3CCCCCOC(C)(C)C(=O)N[C@@H]5C)n(C)c12` [Example 909, (11~{R})-17-[5-[(1~{S},4~{R), 5~{R})-4-amino-2-azabicyclo [3.2.1]octane-2-carbonyl]-7-methoxy-1-methyl-benzimidazol-2-yl]-8,8,11-trimethyl-7-oxa-1,10,19-triazatricyclo[10.5.2.0^{15,18}] nonadeca-12(19), 13,15(18),16-tetraen-9-one], the IC50 came to 0.052 µM.

In the case of `COc1cc(C(=O)N2CC[C@@H](OC(F)F)[C@@H](N)C2)cc2nc(-c3cc4ccc5nc4n3CC(F)(F)CCCCC3(CC(F)(F)C3)C(=O)N[C@@H]5C)n(C)c12` [Example 822, (11~{R})-17-[5-[(3~{S},4~ {R})-3-amino-4-(difluoromethoxy)piperidine-1-carbonyl]-7-methoxy-1-methyl-benzimidazol-2-yl]-1′,1′,3,3-tetrafluoro-11-methyl-spiro [1,10,19-triazatricyclo [10.5.2.0^{15,18}]nonadeca-12(19),13,15(18),16-tetraene-8,3′-cyclobutane]-9-one], the IC50 came out at 0.205 µM.

On to `COc1cc(C(=O)N2CC[C@@H](OC)[C@@H](N)C2)cc2nc(-c3cc4ccc5nc4n3CC/C=C\C[C@H]3C[C@H]3C(=O)N[C@@H]5C)n(C)c12` [Example 517, (2~{R},5~{R},7~ {S},9~{Z})-14-[5-[(3~{S},4~{R})-3-amino-4-methoxy-piperidine-1-carbonyl]-7-methoxy-1-methyl-benzimidazol-2-yl]-2-methyl-3,13,19-triazatetracyclo[11.5.2.0^ {5,7}.0^{16,20}] icosa-1(19),9,14,16(20), 17-pentaen-4-one], for which the IC50 turned out to be 0.128 µM.

For `COc1cc(C(=O)N2C[C@H](N)[C@@H]3CC[C@H]2C3)cc2nc(-c3cc4ccc5nc4n3CC(F)(F)CCC[C@@H]3C[C@H]3C(=O)N[C@@H]5C)n(C)c12` [Example 442, (2~{R},5~{R},7~{R})-14-[5-[(1~{S),4~{R},5~{R})-4-amino-2-azabicyclo[3.2.1]octane-2-carbonyl]-7-methoxy-1-methyl-benzimidazol-2-yl]-11,11-difluoro-2-methyl-3,13,19-triazatetracyclo[11.5.2.0^{5,7).0^{16,20}] icosa-1(19),14,16(20),17-tetraen-4-one], the 50% inhibitory concentration (IC50) was found to be 0.032 µM.

For the compound `CO[C@@H]1CCN(C(=O)c2cc(F)c3c(c2)nc(-c2cc4ccc5nc4n2CCCCCCC(c2ccccn2)C(=O)N[C@@H]5C)n3C2CC2)C[C@@H]1N` (some centres unmarked) [Example 871, (11~{R})-17-[5-[(3~{S), 4~{R})-3-amino-4-methoxy-piperidine-1-carbonyl]-1-cyclopropyl-7-fluoro-benzimidazol-2-yl]-11-methyl-8-(2-pyridyl)-1,10,19-triazatricyclo[10.5.2.0^{15,18}] nonadeca-12(19), 13,15(18),16-tetraen-9-one], the half-inhibitory concentration (IC50) amounted to 0.031 µM.

With `COc1cc(C(=O)N[C@H]2CNCC[C@@H]2F)cc2nc(-c3cc4ccc5nc4n3CCCCCCC(C)(C)C(=O)N[C@@H]5C)n(C)c12` [Example 75, ~{N}-[(3~{S},4~{S})-4-fluoro-3-piperidyl]-7-methoxy-1-methyl-2-[(11~{R})-8,8,11-trimethyl-9-oxo-1,10,19-triazatricyclo[10.5.2.0^{15,18}]nonadeca-12(19),13,15(18),16-tetraen-17-yl]benzimidazole-5-carboxamide], the half-maximal inhibitory concentration (IC50) stood at 0.103 µM.

Turning to `COc1ccnc2c1C(=O)N[C@H](C)c1ccc3cc(-c4nc5cc(C(=O)N6CC[C@@H](OC)[C@@H](N)C6)cc(OC)c5n4C)n(c3n1)CCCCC2` [Example 630, (2~{R})-17-[5-[(3~{S),4~ {R})-3-amino-4-methoxy-piperidine-1-carbonyl]-7-methoxy-1-methyl-benzimidazol-2-yl]-6-methoxy-2-methyl-3,9,16,22-tetrazatetracyclo[14.5.2.0^ {5,10}.0^{19,23}] tricosa-1(22),5(10), 6,8,17,19(23),20-heptaen-4-one], the IC50 is 0.122 µM.

For `COc1cc(C(=O)N2CC[C@@H](OC)[C@@H](N)C2)cc2nc(-c3cc4ccc5nc4n3CCCCCc3cccc(C(F)F)c3C(=O)N[C@@H]5C)n(C)c12` [Example 397, (2~{R})-17-[5-[(3~{S},4~{R})-3-amino-4-methoxy-piperidine-1-carbonyl]-7-methoxy-1-methyl-benzimidazol-2-yl]-6-(difluoromethyl)-2-methyl-3,16,22-triazatetracyclo[14.5.2.0^{5,10}.0^{19,23}] tricosa-1(22),5(10),6,8,17,19(23),20-heptaen-4-one], the IC50 amounted to 0.091 µM.

For `COc1cc(C(=O)N2[C@H]3CC[C@@H]2[C@H](N)C3)cc2nc(-c3cc4ccc5nc4n3CCCCCCCC(=O)N[C@@H]5C(F)(F)F)n(C)c12` [Example 258, (11~{S})-17-[5-[(1~{R},2~{R},4~{S})-2-amino-7-azabicyclo[2.2.1]heptane-7-carbonyl]-7-methoxy-1-methyl-benzimidazol-2-yl]-11-(trifluoromethyl)-1,10,19-triazatricyclo[10.5.2.0^{15,18}]nonadeca-12(19),13,15(18),16-tetraen-9-one], the half-maximal inhibitory concentration (IC50) came out at 0.039 µM.

For the compound `COc1cc(C(=O)N2CCC[C@@H](N)C2)cc2nc(-c3cc4ccc5nc4n3CCC3(CC3)COCCC(=O)N[C@@H]5C)c(C)n12` [Example 303, (11~{R})-17-[7-[(3~{R})-3-aminopiperidine-1-carbonyl]-5-methoxy-3-methyl-imidazo[1,2-a]pyridin-2-yl]-11-methyl-spiro[6-oxa-1,10,19-triazatricyclo[10.5.2.0^{15,18}]nonadeca-12(19),13,15(18),16-tetraene-4,1′-cyclopropane]-9-one], the IC50 worked out at 0.525 µM.

In the case of `COc1cc(C(=O)N2C[C@H](N)C[C@@H](F)[C@@H]2C)cc2nc(-c3cc4ccc5nc4n3CCCCCCC(C)(C)C(=O)N[C@@H]5C)n(C)c12` [Example 795, (11~{R})-17-[5-[(2~{S),3~{R},5~ {R})-5-amino-3-fluoro-2-methyl-piperidine-1-carbonyl]-7-methoxy-1-methyl-benzimidazol-2-yl]-8,8,11-trimethyl-1,10,19-triazatricyclo[10.5.2.0^ {15,18}]nonadeca-12,14,16,18-tetraen-9-one], the half-inhibitory concentration (IC50) came out at 0.661 µM.

As to `C[C@H]1NC(=O)[C@@H]2C[C@H]2C/C=C/CCn2c(-c3nc4cc(C(=O)N[C@H]5CNCC[C@@H]5F)cc(C(F)(F)F)c4n3C)cc3ccc1nc32` [Example 561, ~{N}-[(3~{S},4~{S})-4-fluoro-3-piperidyl]-1-methyl-2-[(2~{R},5~{R}, 7~{R},9~{E})-2-methyl-4-oxo-3,13,19-triazatetracyclo [11.5.2.0^{5,7}.0^{16,20}]icosa-1(19),9,14,16(20), 17-pentaen-14-yl]-7-(trifluoromethyl) benzimidazole-5-carboxamide], the IC50 worked out at 0.523 µM.

Turning to `COc1cc(C(=O)N[C@H]2CNCC[C@@H]2F)cc2nc(-c3cc4ccc5nc4n3C[C@H]3[C@H](CCCC(C)(C)C(=O)N[C@@H]5C)C3(F)F)n(C)c12` (single isomer, unassigned) [Example 364, 2-[(3˜{R},5˜{S},12˜{R})-4,4-difluoro-9,9,12-trimethyl-10-oxo-1,11,20-triazatetracyclo[11.5.2.0^{3,5}.0^{16,19}]icosa-13(20),14,16(19),17-tetraen-18-yl]-˜{N}-[(3˜{S},4˜{S})-4-fluoro-3-piperidyl]-7-methoxy-1-methyl-benzimidazole-5-carboxamide], the concentration for half-maximal inhibition (IC50) is 0.203 µM.
